Test results: patent US7741352B2, “KCNQ channel modulating compounds and their pharmaceutical use” (Neurosearch A/S, priority 2003, dated 2010)

Compound `Cc1noc(C)c1COc1ccc(C(=O)O)c(O)c1` [Compound 1-1, 2-Hydroxy-4-(3,5-dimethyl-isoxazol-4-yl-methyloxy)-benzoic acid] has a melting point of 201 to 203 °C. In the case of `O=C(O)c1ccc(OCc2ccc(-n3cncn3)cc2)cc1O` [Compound 1-2, 2-Hydroxy-4-(4-[1,2,4]triazol-1-yl-benzyloxy)-benzoic acid], the melting point was 229 °C (dec.). In the case of `CCCCCCCCOc1ccc(C(=O)O)c(O)c1` [Compound 1-3, 2-Hydroxy-4-octyloxy-benzoic acid], the melting point was 100 to 102 °C. For `COCCOCCOc1ccc(C(=O)O)c(O)c1` [Compound 1-4, 2-Hydroxy-4-[2-(2-methoxy-ethoxy]-ethoxy]-benzoic acid], the melting point was 110 to 112 °C. With `C=CCCOc1ccc(C(=O)O)c(O)c1` [Compound 1-5, 4-But-3-enyloxy-2-hydroxy-benzoic acid] the melting point was 143 to 144 °C. `C=CCCCCOc1ccc(C(=O)O)c(O)c1` [Compound 1-7, 4-Hex-5-enyloxy-2-hydroxy-benzoic acid] showed a melting point of 105 °C. Work on `O=C(O)c1ccc(OCCCCCCO)cc1O` [Compound 1-8, 2-Hydroxy-4-(6-hydroxyhexyloxy) benzoic acid] yielded a melting point of 139 °C. `O=C(O)c1ccc(OCCCCCCCCO)cc1O` [Compound 1-9, 2-Hydroxy-4-(8-hydroxy-octyloxy) benzoic acid] showed a melting point of 119 to 121 °C. Work on `C=CCCCCCCOc1ccc(C(=O)O)c(O)c1` [Compound 1-10, 2-Hydroxy-4-oct-7-enyloxy-benzoic acid] yielded a melting point of 102 to 111 °C. `CC(C)=CCC/C(C)=C/COc1ccc(C(=O)O)c(O)c1` [Compound 1-13, 4-(3,7-Dimethyl-octa-2,6-dienyloxy)-2-hydroxybenzoic acid] showed a melting point of 97 to 106 °C. With `O=C(O)c1ccc(OCc2ccc(-c3ccccc3)cc2)cc1O` [Compound 1-16, 4-(Biphenyl-4-ylmethoxy)-2-hydroxy-benzoic acid] the melting point was 216 to 219 °C (dec.). In the case of `N#Cc1ccccc1-c1ccc(COc2ccc(C(=O)O)c(O)c2)cc1` [Compound 1-17, 4-(2′-Cyano-biphenyl-4-ylmethoxy)-2-hydroxy-benzoic acid], the melting point was 220 °C (dec.). With `O=C(O)c1ccc(OCc2ccc(F)cc2)cc1O` [Compound 1-18, 4-(4-Fluoro-benzyloxy)-2-hydroxy-benzoic acid] the melting point was 196 to 198 °C. For `O=C(O)c1ccc(OCc2ccc3ccccc3n2)cc1O` [Compound 1-19, 2-Hydroxy-4-(quinolin-2-ylmethoxy)-benzoic acid], the melting point was 197 °C (dec.). `O=C(c1ccccc1)c1ccc(COc2ccc(C(=O)O)c(O)c2)cc1` [Compound 1-20, 4-(4-Benzoyl-benzyloxy)-2-hydroxy benzoic acid] gave a melting point of 198 to 199 °C. With `O=C(O)c1ccc(OCCCN2CCCCC2)cc1O` [Compound 1-21, 2-Hydroxy-4-(3-piperidin-1-yl-propoxy)-benzoic acid] the melting point was 194 °C (dec.). `O=C(O)c1ccc(OCc2cccc(Br)c2)cc1O` [Compound 1-23, 4-(3-Bromo-benzyloxy)-2-hydroxy-benzoic acid] showed a melting point of 191 to 197 °C. Work on `O=C(O)c1ccc(OCC(O)CO)cc1O` (centres unmarked) [Compound 2-1, 4-(2,3-Dihydroxypropoxy)-2-hydroxy-benzoic acid] yielded a melting point of 151 to 153 °C. Compound `O=C(O)c1ccc(OCCC(O)CO)cc1O` (centres unmarked) [Compound 2-2, 4-(3,4-Dihydroxybutoxy)-2-hydroxy-benzoic acid] has a melting point of 140 to 148 °C. In the case of `O=C(O)c1ccc(OCCCCC(O)CO)cc1O` (centres unmarked) [Compound 2-3, 4-(5,6-Dihydroxhexoxy)-2-hydroxy-benzoic acid], the melting point was 152 °C. Compound `O=C(O)c1ccc(OCCCCCCC(O)CO)cc1O` (centres unmarked) [Compound 2-6, 4-(7,8-Dihydroxyoctyloxy)-2-hydroxy-benzoic acid] has a melting point of 168 to 170 °C. Compound `NNC(=O)c1ccc(OCc2cccc(Br)c2)cc1O` [Compound 2-7, 4-(3-Bromo-benzyloxy)-2-hydroxy-benzoic acid hydrazide] has a melting point of 201 to 203 °C. For `O=C(O)c1ccc(OCc2ccc(-c3cccnc3)cc2)cc1O` [Compound 3-1, 2-Hydroxy-4-(4-pyridin-3-yl-benzyloxy)-benzoic acid], the melting point was 209 to 211 °C (dec.). In the case of `O=C(O)c1ccc(OCc2ccc(-c3ccncc3)cc2)cc1O` [Compound 3-2, 2-Hydroxy-4-(4-pyridin-4-yl-benzyloxy)-benzoic acid], the melting point was 252 to 257 °C (dec.). In the case of `O=C(O)c1ccc(OCc2ccc(-c3ccco3)cc2)cc1O` [Compound 3-3, 4-(4-Furan-2-yl-benzyloxy)-2-hydroxy-benzoic acid], the melting point was 201 to 205 °C (dec.). With `O=C(O)c1ccc(OCc2ccc(-c3ccoc3)cc2)cc1O` [Compound 3-4, 4-(4-Furan-3-yl-benzyloxy)-2-hydroxy-benzoic acid] the melting point was 202 to 206 °C (dec.). For `COc1ccncc1-c1ccc(COc2ccc(C(=O)O)c(O)c2)cc1` [Compound 3-5, 2-Hydroxy-4-[4-(4-methoxy-pyridin-3-yl)-benzyloxy]-benzoic acid], the melting point was 197 to 200 °C (dec.). For `CC(=O)c1cccc(-c2ccc(COc3ccc(C(=O)O)c(O)c3)cc2)c1` [Compound 3-6, 4-(3′-Acetyl-biphenyl-4-ylmethoxy)-2-hydroxy-benzoic acid], the melting point was 215 to 220 °C (dec.). For `O=C(O)c1cccc(-c2ccc(COc3ccc(C(=O)O)c(O)c3)cc2)c1` [Compound 3-7, 4′-(4-Carboxy-3-hydroxy-phenoxymethyl)-biphenyl-3-carboxylic acid], the melting point was 249 to 255 °C (dec.). In the case of `O=C(O)c1ccc(OCc2ccc(-c3cccc(O)c3)cc2)cc1O` [Compound 3-8, 2-Hydroxy-4-(3′-hydroxy-biphenyl-4-ylmethoxy)-benzoic acid], the melting point was 209 to 212 °C (dec.). With `COc1cccc(-c2ccc(COc3ccc(C(=O)O)c(O)c3)cc2)c1` [Compound 3-9, 2-Hydroxy-4-(3′methoxy-biphenyl-4-ylmethoxy)-benzoic acid] the melting point was 197 to 199 °C (dec.). With `O=C(O)c1ccc(OCc2ccc(-c3cccc([N+](=O)[O-])c3)cc2)cc1O` [Compound 3-10, 2-Hydroxy-4-(3′-nitro-biphenyl-4-ylmethoxy)-benzoic acid] the melting point was 211 to 214 °C (dec.). In the case of `CC(=O)Nc1cccc(-c2ccc(COc3ccc(C(=O)O)c(O)c3)cc2)c1` [Compound 3-12, 4-(3′-Acetylamino-biphenyl-4-ylmethoxy)-2-hydroxy-benzoic acid], the melting point was 231 to 233 °C (dec.). For `CC(=O)c1ccc(-c2ccc(COc3ccc(C(=O)O)c(O)c3)cc2)s1` [Compound 3-13, 4-[4-(5-Acetyl-thiophen-2-yl)-benzyloxy]-2-hydroxy-benzoic acid], the melting point was 244 to 248 °C (dec.). For `O=C(O)c1ccc(OCc2ccc(-c3ccc4c(c3)OCO4)cc2)cc1O` [Compound 3-14, 4-[3′,4′-(Methylenedioxy)-biphenyl-4-ylmethoxy]-2-hydroxy-benzoic acid], the melting point was 222 to 226 °C (dec.). With `COc1ccc(-c2ccc(COc3ccc(C(=O)O)c(O)c3)cc2)cc1OC` [Compound 3-15, 2-Hydroxy-4-(3′,4′-dimethoxy-biphenyl-4-ylmethoxy)-benzoic acid] the melting point was 200 to 204 °C (dec.). For `O=C(O)c1ccc(OCc2ccc(-c3ccc(CO)cc3)cc2)cc1O` [Compound 3-16, 2-Hydroxy-4-(4′-hydroxymethyl-biphenyl-4-ylmethoxy)-benzoic acid], the melting point was 222 to 226 °C (dec.). In the case of `O=C(O)c1ccc(OCc2cccc(-c3ccccc3)c2)cc1O` [Compound 3-18, 4-(Biphenyl-3-ylmethoxy)-2-hydroxy-benzoic acid], the melting point was 184 °C (dec.). With `CC(=O)c1cccc(-c2cccc(COc3ccc(C(=O)O)c(O)c3)c2)c1` [Compound 3-20, 4-(3′-Acetyl-biphenyl-3-ylmethoxy)-2-hydroxy-benzoic acid] the melting point was 173 to 180 °C (dec.). With `O=C(O)c1cccc(-c2cccc(COc3ccc(C(=O)O)c(O)c3)c2)c1` [Compound 3-21, 3′-(4-Carboxy-3-hydroxy-phenoxymethyl)-biphenyl-3-carboxylic acid] the melting point was 211 to 227 °C (dec.). For `COc1cccc(-c2cccc(COc3ccc(C(=O)O)c(O)c3)c2)c1` [Compound 3-22, 2-Hydroxy-4-(3′-methoxy-biphenyl-3-ylmethoxy)-benzoic acid], the melting point was 103 to 115 °C (dec.). In the case of `O=C(O)c1ccc(OCc2cccc(-c3cccc([N+](=O)[O-])c3)c2)cc1O` [Compound 3-23, 2-Hydroxy-4-(3′-nitro-biphenyl-3-ylmethoxy)-benzoic acid], the melting point was 188 to 193 °C (dec.). With `Nc1cccc(-c2cccc(COc3ccc(C(=O)O)c(O)c3)c2)c1` [Compound 3-24, 4-(3′-Amino-biphenyl-3-ylmethoxy)-2-hydroxy-benzoic acid] the melting point was 205 to 208 °C (dec.). With `COc1cc(-c2cccc(COc3ccc(C(=O)O)c(O)c3)c2)ccc1O` [Compound 3-26, 2-Hydroxy-4-(4′-hydroxy-3′-methoxy-biphenyl-3-ylmethoxy)-benzoic acid] the melting point was 153 to 157 °C (dec.). In the case of `O=C(O)c1ccc(OCc2cccc(-c3cccnc3)c2)cc1O` [Compound 3-27, 2-Hydroxy-4-(3-pyridin-3-yl-benzyloxy)-benzoic acid], the melting point was 189 to 195 °C (dec.). For `CC(=O)c1ccc(-c2cccc(COc3ccc(C(=O)O)c(O)c3)c2)s1` [Compound 3-29, 4-[3-(5-Acetyl-thiophen-2-yl)-benzyloxy]-2-hydroxy-benzoic acid], the melting point was 210 to 215 °C (dec.). For `O=C(O)c1ccc(OCc2cccc(-c3ccc(Cl)c(Cl)c3)c2)cc1O` [Compound 3-30, 4-(3′,4′-Dichloro-biphenyl-3-ylmethoxy)-2-hydroxy-benzoic acid], the melting point was 211 to 215 °C (dec.). With `O=C(O)c1ccc(OCc2cccc(-c3cc(Cl)cc(Cl)c3)c2)cc1O` [Compound 3-31, 4-(3′,5′-Dichloro-biphenyl-3-ylmethoxy)-2-hydroxy-benzoic acid] the melting point was 194 to 197 °C (dec.). For `Cn1ccc2cc(-c3cccc(COc4ccc(C(=O)O)c(O)c4)c3)ccc21` [Compound 3-33, 2-Hydroxy-4-[3-(1-methyl-1H-indol-5-yl)-benzyloxy]-benzoic acid], the melting point was 181 to 183 °C (dec.). In the case of `O=C(O)c1ccc(OCc2cccc(-c3ccc4[nH]ccc4c3)c2)cc1O` [Compound 3-34, 2-Hydroxy-4-[3-(1H-indol-5-yl)-benzyloxy]-benzoic acid], the melting point was 193 to 196 °C (dec.).
